Reference: ChEMBL document CHEMBL1201862, “PubChem BioAssay data set” (2004)
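Dose response: 5 concentrations. Exposure: 48 h. Format: 96-well plates. Endpoint: linear interpolation; highest concentration if not reached. Abbreviation: GI50, concentration required for 50% inhibition of growth.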 Active and inactive are the calls of the source. No stated cut-off is given here; in the data, active = GI50 up to about 1.1 µM and inactive = higher.

How the values were obtained:
Experiment in all cases: NCI anticancer screen, dose series, 48 h
HL-60 = tested on: HL-60
SN12C = tested on: SN12C
SK-MEL-5 = tested on: SK-MEL-5
M19-MEL = tested on: M19-MEL
LXFL 529 = tested on: LXFL 529
SK-MEL-28 = tested on: SK-MEL-28
HCT-15 = tested on: HCT-15
NCI-H460 = tested on: NCI-H460
KM-20L2 = tested on: KM-20L2
EKVX = tested on: EKVX
SNB-75 = tested on: SNB-75
CCRF-CEM = tested on: CCRF-CEM
HT-29 = tested on: HT-29
SNB-78 = tested on: SNB-78
OVCAR-3 = tested on: OVCAR-3
HCT-116 = tested on: HCT-116
UACC-62 = tested on: UACC-62
RXF 631 = tested on: RXF 631
HCC 2998 = tested on: HCC 2998
U-251 = tested on: U-251
OVCAR-8 = tested on: OVCAR-8
SF-295 = tested on: SF-295
XF498 = tested on: XF498
OVCAR-5 = tested on: OVCAR-5
ACHN = tested on: ACHN
MOLT-4 = tested on: MOLT-4
IGROV-1 = tested on: IGROV-1
LOX IMVI = tested on: LOX IMVI
SW-620 = tested on: SW-620
COLO 205 = tested on: COLO 205
KM12 = tested on: KM12
DMS-273 = tested on: DMS-273
SR = tested on: SR
786-0 = tested on: 786-0
OVCAR-4 = tested on: OVCAR-4
NCI-H522 = tested on: NCI-H522
NCI-H226 = tested on: NCI-H226
HOP-62 = tested on: HOP-62
K562 = tested on: K562
SF-268 = tested on: SF-268
SNB-19 = tested on: SNB-19
DLD-1 = tested on: DLD-1
M14 = tested on: M14
A549 = tested on: A549
SK-MEL-2 = tested on: SK-MEL-2
RXF 393 = tested on: RXF 393
NCI-H23 = tested on: NCI-H23
SF-539 = tested on: SF-539
TK-10 = tested on: TK-10
CAKI-1 = tested on: CAKI-1
RPMI-8226 = tested on: RPMI-8226
DMS-114 = tested on: DMS-114
Malme-3M = tested on: Malme-3M
UACC-257 = tested on: UACC-257
SK-OV-3 = tested on: SK-OV-3
HOP-92 = tested on: HOP-92
A498 = tested on: A498
UO-31 = tested on: UO-31

SMILES: COc1ccc2cc1Oc1ccc(cc1)CC1c3cc4c(cc3CCN1C)Oc1c(OC)cc3c(c1O4)C(C2)N(C)CC3 (stereo not given)
- GI50 (HL-60): 1.96 µM (inactive)
- GI50 (SN12C): 1.94 µM (inactive)
- GI50 (SK-MEL-5): 8.57 µM (inactive)
- GI50 (M19-MEL): 4.01 µM (inactive)
- GI50 (LXFL 529): 2 µM (inactive)
- GI50 (SK-MEL-28): 1.49 µM (inactive)
- GI50 (HCT-15): 2.42 µM
- GI50 (NCI-H460): 1.76 µM (inactive)
- GI50 (KM-20L2): 2.55 µM (inactive)
- GI50 (EKVX): 9.79 µM (inactive)
- GI50 (SNB-75): 2.56 µM (inactive)
- GI50 (CCRF-CEM): 1.32 µM (inactive)
- GI50 (HT-29): 1.81 µM (inactive)
- GI50 (SNB-78): 17.6 µM (inactive)
- GI50 (OVCAR-3): 5.81 µM (inactive)
- GI50 (HCT-116): 1.7 µM (inactive)
- GI50 (UACC-62): 3.21 µM (inactive)
- GI50 (RXF 631): 4.99 µM (inactive)
- GI50 (HCC 2998): 3.05 µM (inactive)
- GI50 (U-251): 2.26 µM (inactive)
- GI50 (OVCAR-8): 2.12 µM (inactive)
- GI50 (SF-295): 1.98 µM (inactive)
- GI50 (XF498): 1.94 µM (inactive)
- GI50 (OVCAR-5): 13.6 µM (inactive)
- GI50 (ACHN): 4.78 µM (inactive)
- GI50 (MOLT-4): 1.44 µM (inactive)
- GI50 (IGROV-1): > 10 µM (inactive)
- GI50 (LOX IMVI): 1.46 µM (inactive)
- GI50 (SW-620): 1.69 µM (inactive)
- GI50 (COLO 205): 1.43 µM (inactive)
- GI50 (KM12): 2.11 µM (inactive)
- GI50 (DMS-273): 1.63 µM (inactive)
- GI50 (SR): 1.53 µM (inactive)
- GI50 (786-0): 7.66 µM (inactive)
- GI50 (OVCAR-4): 1.47 µM (inactive)
- GI50 (NCI-H522): 2.11 µM (inactive)
- GI50 (NCI-H226): 1.72 µM (inactive)
- GI50 (HOP-62): 12.6 µM (inactive)
- GI50 (K562): 1.75 µM (inactive)
- GI50 (SF-268): 2.77 µM (inactive)
- GI50 (SNB-19): 3.86 µM (inactive)
- GI50 (DLD-1): 2.96 µM (inactive)
- GI50 (M14): 1.64 µM (inactive)
- GI50 (A549): 4.71 µM (inactive)
- GI50 (SK-MEL-2): 2.8 µM (inactive)
- GI50 (RXF 393): 1.64 µM (inactive)
- GI50 (NCI-H23): 4.26 µM (inactive)
- GI50 (SF-539): 2.13 µM (inactive)
- GI50 (TK-10): 15.6 µM (inactive)

SMILES: BrC(/C=N/Nc1nnc(-c2ccccc2)c(-c2ccccc2)n1)C(Br)c1ccccc1 (stereo not given)
- GI50 (CAKI-1): 30.7 µM (inactive)
- GI50 (RPMI-8226): 14.4 µM (inactive)
- GI50 (DMS-114): 23.7 µM (inactive)
- GI50 (HL-60): 22.4 µM (inactive)
- GI50 (SN12C): 48.8 µM (inactive)
- GI50 (SK-MEL-5): 21.9 µM (inactive)
- GI50 (M19-MEL): 36.1 µM (inactive)
- GI50 (SK-MEL-28): 37.3 µM (inactive)
- GI50 (HCT-15): 28.7 µM
- GI50 (NCI-H460): 35.2 µM (inactive)
- GI50 (KM-20L2): 39.8 µM (inactive)
- GI50 (EKVX): 29.9 µM (inactive)
- GI50 (SNB-75): 22.2 µM (inactive)
- GI50 (CCRF-CEM): 24.9 µM (inactive)
- GI50 (HT-29): 34 µM (inactive)
- GI50 (Malme-3M): 28.5 µM (inactive)
- GI50 (SNB-78): 17.7 µM (inactive)
- GI50 (OVCAR-3): 35.7 µM (inactive)
- GI50 (UACC-62): 18.6 µM (inactive)
- GI50 (RXF 631): 51.4 µM (inactive)
- GI50 (HCC 2998): 30.3 µM (inactive)
- GI50 (U-251): 28.2 µM (inactive)
- GI50 (OVCAR-8): 38.5 µM (inactive)
- GI50 (SF-295): 30.5 µM (inactive)
- GI50 (XF498): 25.3 µM (inactive)
- GI50 (OVCAR-5): 51.5 µM (inactive)
- GI50 (UACC-257): 14.1 µM (inactive)
- GI50 (SK-OV-3): 82.4 µM (inactive)
- GI50 (ACHN): 31 µM (inactive)
- GI50 (MOLT-4): 17.7 µM (inactive)
- GI50 (IGROV-1): 41.7 µM (inactive)
- GI50 (LOX IMVI): 41.5 µM (inactive)
- GI50 (HOP-92): 20.3 µM (inactive)
- GI50 (SW-620): 37.8 µM (inactive)
- GI50 (COLO 205): 33.2 µM (inactive)
- GI50 (KM12): 32.9 µM (inactive)
- GI50 (DMS-273): 30.5 µM (inactive)
- GI50 (786-0): 32 µM (inactive)
- GI50 (OVCAR-4): > 10 µM (inactive)
- GI50 (A498): 40.2 µM (inactive)
- GI50 (NCI-H522): 14.5 µM (inactive)
- GI50 (NCI-H226): 20.4 µM (inactive)
- GI50 (HOP-62): 20.6 µM (inactive)
- GI50 (K562): 22.6 µM (inactive)
- GI50 (SF-268): 29.2 µM (inactive)
- GI50 (SNB-19): 64.4 µM (inactive)
- GI50 (DLD-1): 23.8 µM (inactive)
- GI50 (M14): 21.6 µM (inactive)
- GI50 (A549): 29.3 µM (inactive)
- GI50 (SK-MEL-2): 19.9 µM (inactive)
- GI50 (RXF 393): 25.1 µM (inactive)
- GI50 (UO-31): 19.7 µM (inactive)
- GI50 (NCI-H23): 22.2 µM (inactive)
- GI50 (SF-539): 28.4 µM (inactive)
- GI50 (TK-10): 35.8 µM (inactive)

SMILES: O=C1C2C(C(=O)N1Cc1ccccc1)N(Cc1ccccc1)C(=O)N2Cc1ccccc1 (stereo not given)
- GI50 (CAKI-1): > 100 µM (inactive)
- GI50 (RPMI-8226): > 100 µM (inactive)
- GI50 (DMS-114): > 100 µM (inactive)
- GI50 (HL-60): > 100 µM (inactive)
- GI50 (SN12C): > 100 µM (inactive)
- GI50 (SK-MEL-5): > 100 µM (inactive)
- GI50 (M19-MEL): > 100 µM (inactive)
- GI50 (LXFL 529): > 100 µM (inactive)
- GI50 (SK-MEL-28): > 100 µM (inactive)
- GI50 (HCT-15): > 100 µM
- GI50 (NCI-H460): > 100 µM (inactive)
- GI50 (KM-20L2): > 100 µM (inactive)
- GI50 (EKVX): > 100 µM (inactive)
- GI50 (SNB-75): 59.3 µM (inactive)
- GI50 (CCRF-CEM): > 100 µM (inactive)
- GI50 (HT-29): > 100 µM (inactive)
- GI50 (Malme-3M): > 100 µM (inactive)
- GI50 (SNB-78): > 100 µM (inactive)
- GI50 (OVCAR-3): > 100 µM (inactive)
- GI50 (HCT-116): > 100 µM (inactive)
- GI50 (UACC-62): > 100 µM (inactive)
- GI50 (RXF 631): > 100 µM (inactive)
- GI50 (HCC 2998): > 100 µM (inactive)
- GI50 (U-251): > 100 µM (inactive)
- GI50 (OVCAR-8): > 100 µM (inactive)
- GI50 (SF-295): > 100 µM (inactive)
- GI50 (XF498): > 100 µM (inactive)
- GI50 (OVCAR-5): > 100 µM (inactive)
- GI50 (UACC-257): > 100 µM (inactive)
- GI50 (SK-OV-3): > 100 µM (inactive)
- GI50 (ACHN): > 100 µM (inactive)
- GI50 (MOLT-4): > 100 µM (inactive)
- GI50 (IGROV-1): > 100 µM (inactive)
- GI50 (LOX IMVI): > 100 µM (inactive)
- GI50 (HOP-92): > 100 µM (inactive)
- GI50 (SW-620): > 100 µM (inactive)
- GI50 (COLO 205): > 100 µM (inactive)
- GI50 (KM12): > 100 µM (inactive)
- GI50 (SR): > 100 µM (inactive)
- GI50 (786-0): > 100 µM (inactive)
- GI50 (OVCAR-4): > 100 µM (inactive)
- GI50 (A498): > 100 µM (inactive)
- GI50 (NCI-H522): > 100 µM (inactive)
- GI50 (NCI-H226): > 100 µM (inactive)
- GI50 (HOP-62): > 100 µM (inactive)
- GI50 (K562): > 100 µM (inactive)
- GI50 (SF-268): > 100 µM (inactive)
- GI50 (SNB-19): > 100 µM (inactive)
- GI50 (DLD-1): > 100 µM (inactive)
- GI50 (M14): > 100 µM (inactive)
- GI50 (A549): > 100 µM (inactive)
- GI50 (RXF 393): > 100 µM (inactive)
- GI50 (UO-31): > 100 µM (inactive)
- GI50 (NCI-H23): > 100 µM (inactive)
- GI50 (SF-539): > 100 µM (inactive)
- GI50 (TK-10): > 100 µM (inactive)
